Assay results taken from US20260109707A1, “HETEROBIFUNCTIONAL COMPOUNDS AND METHODS OF TREATING DISEASE” (Halda Therapeutics OpCo. Inc., priority 2022, published 2026).

Legend:
[1] = tested on: T-Rex 293 cell line SC3 cells having increased expression of androgen receptor protein due to exposure to doxycycline; test: Cellular growth inhibition assay, T-Rex 293 SC3 cells with doxycycline (CellTiter-Glo, 72 hours); format: cell-based; settings: T-Rex 293 SC3 cells with increased androgen receptor expression due to doxycycline (10 ng/mL)
Procedure: (§1) The following types of cells were prepared for this experiment: (i) a T-Rex 293 cell line having increased expression of androgen receptor protein due to exposure to doxycycline and (ii) a T-Rex 293 cell line lacking increased expression of androgen receptor protein. Ability of the test compounds to inhibit proliferation of the foregoing cell types was evaluated according to the procedures set forth below.
(§2) The doxycycline-inducible androgen receptor protein expressing cell line was established using the following protocol: T-Rex 293 cells were purchased from Invitrogen (Cat #R71007) and transfected using Lipofectamine 2000 with the wild-type androgen receptor protein sequence cloned into the pcDNA4/TO vector. Transfected cells were selected using 400 μg/mL Zeocin (Invitrogen Cat #R25001). Following selection, single clones were raised and maintained in Dulbecco's Modified Eagle Medium (DMEM) supplemented with 10% w/w Tetracycline-free fetal bovine serum (FBS) and 250 μg/mL Zeocin. Clones were analyzed for expression of androgen receptor protein in the presence and absence of 10 ng/mL doxycycline (Sigma Cat #D9891), and a single doxycycline-inducible clone (hereinafter “SC3”) was selected for use in downstream assays.
(§3) The SC3 cells were seeded on poly-D-lysine coated, black clear-bottom 384-well plates at 2500/well, in 25 μL Phenol Red Free Dulbecco's Modified Eagle Medium (DMEM) supplemented with 10% w/w charcoal-dextran treated fetal bovine serum (FBS) and 1% w/w pen-strep, with or without 10 ng/mL doxycycline. Pen-Strep is a commercially available mixture of penicillin G and streptomycin, which is used in mammalian cell culture media to prevent bacterial contamination. Phenol Red Free Dulbecco's Modified Eagle Medium (DMEM) supplemented with 10% w/w charcoal-dextran treated fetal bovine serum (FBS) and 1% w/w pen-strep, with or without 10 ng/mL doxycycline is herein referred to as Treatment Medium. Following seeding of cells in the plates, the plates were spun at 300×g for 30 seconds, then equilibrated to room temperature for 30 minutes, and then deposited in a humidified tissue culture incubator maintained at 37° C. with 5% CO2.
(§4) At 24 hours after seeding of the cells, dilutions of test compound were prepared in DMSO and dissolved in Treatment Medium, to achieve a final DMSO concentration of 0.5% w/w, thereby providing the Test Compound Solution. A 25 μL aliquot of the Test Compound Solution was added to cells in the well plates. An equal volume of a solution containing DMSO and Treatment Medium was used as a negative control. Following treatment of cells with Test Compound Solution or said equal volume of a solution containing DMSO and Treatment Medium, the plates were spun at 300×g for 30 seconds, and then left in an incubator for 72 hours.
(§5) At the end of the treatment duration, cell viability was quantified with CellTiter-Glo 2.0 reagent (Promega Cat #G9243). For this purpose, plates were equilibrated to room temperature for 30 minutes, and then 25 μL of CellTiter-Glo 2.0 reagent was added to cells in the plate wells. Plates were then agitated on a shaker for two minutes at 500 rpm and subsequently incubated at room temperature for 10 minutes. Following incubation, the plates were spun at 3000×g for 30 seconds, then sealed with an optical adhesive cover, and luminescence readings were measured with an EnVision Plate Reader.
(§6) Data was normalized using zero luminescence for baseline. A four-parameter non-linear regression curve fit was applied to dose-response data in GraphPad Prism data analysis software to determine the half-maximal growth inhibitory concentration (GI50) for each test compound.

[2] = tested on: T-Rex 293 cell line SC3 cells lacking increased expression of androgen receptor protein; test: Cellular growth inhibition assay, T-Rex 293 SC3 cells without doxycycline (CellTiter-Glo, 72 hours); format: cell-based; settings: T-Rex 293 cell line SC3 cells not exposed to doxycycline (lacking increased androgen receptor expression)
Procedure: as §1, §2, §3, §4, §5, §6

Row | SMILES | GI50 ([1]; 72 h) [µM] | GI50 ([2]; 72 h) [µM] | GI50 [2] [µM] | GI50 [1] [µM]
1 | Cc1sc2c(c1C)C(c1ccc(NCC3CCCN(c4ncc(C(=O)N[C@H]5CC[C@H](Oc6ccc(C#N)c(Cl)c6)CC5)cn4)C3)cc1)=NC(Cc1ncco1)c1nnc(C)n1-2 (stereo partly drawn) [I-809] | < 0.5 | > 3 | – | –
2 | COC[C@@H]1N=C(c2ccc(OC3CC4(CCCN(c5ccc(C(=O)N[C@H]6CC[C@H](Oc7ccc(C#N)c(Cl)c7)CC6)nn5)C4)C3)cc2)c2c(sc(C)c2C)-n2c(C)nnc21 (stereo partly drawn) [I-661] | < 0.5 | – | – | –
3 | Cc1sc2c(c1C)C(c1ccc(N3C[C@@H]4CN(c5ccc(C(=O)N[C@H]6CC[C@H](Oc7ccc(C#N)c(Cl)c7)CC6)nn5)C[C@H]4C3)cc1)=N[C@@H](C)c1nnc(C)n1-2 [I-705] | – | < 0.5 | – | –
4 | Cc1sc2c(c1C)C(c1ccc(C#CC3CC4(CCCN(c5ccc(C(=O)N[C@H]6CC[C@H](Oc7ccc(C#N)c(Cl)c7)CC6)nn5)C4)C3)cc1)=NC1(CC1)c1nnc(C)n1-2 (stereo partly drawn) [I-472] | < 0.5 | – | > 3 | –
5 | Cc1sc2c(c1C)C(c1ccc(N3CC(N4CCN(c5ncc(C(=O)N[C@H]6CC[C@H](Oc7ccc(C#N)c(Cl)c7)CC6)cn5)CC4)C3)cc1)=NC(Cc1ncco1)c1nnc(C)n1-2 (stereo partly drawn) [I-780] | < 0.5 | < 0.5 | – | –
6 | Cc1sc2c(c1C)C(c1ccc(N3CC4(CCN(c5ncc(C(=O)N[C@H]6CC[C@H](Oc7ccc(C#N)c(Cl)c7)CC6)cn5)CC4)C3)cc1)=NC(Cc1ncco1)c1nnc(C)n1-2 (stereo partly drawn) [I-777] | < 0.5 | < 0.5 | – | –
7 | Cc1sc2c(c1C)C(c1ccc(N3CCO[C@@H](CNc4ncc(C(=O)N[C@H]5CC[C@H](Oc6ccc(C#N)c(Cl)c6)CC5)cn4)C3)cc1)=NC(Cc1ncco1)c1nnc(C)n1-2 (stereo partly drawn) [I-819] | < 0.5 | < 0.5 | – | –
8 | Cc1sc2c(c1C)C(c1ccc(N3[C@@H]4CC[C@H]3C[C@@H](Nc3ncc(C(=O)N[C@H]5CC[C@H](Oc6ccc(C#N)c(Cl)c6)CC5)cn3)C4)cc1)=NC(Cc1ncco1)c1nnc(C)n1-2 (stereo partly drawn) [I-782] | – | – | > 3 | < 0.5
9 | Cc1sc2c(c1C)C(c1ccc(N[C@H]3CCN(c4ncc(C(=O)N[C@H]5CC[C@H](Oc6ccc(C#N)c(Cl)c6)CC5)cn4)C[C@@H]3F)cc1)=NC(Cc1ncco1)c1nnc(C)n1-2 (stereo partly drawn) [I-781] | < 0.5 | < 0.5 | – | –
10 | COC[C@@H]1N=C(c2ccc(C3CCC4(CC3)CCN(c3ccc(C(=O)N[C@H]5CC[C@H](Oc6ccc(C#N)c(Cl)c6)CC5)nn3)C4)cc2)c2c(sc(C)c2C)-n2c(C)nnc21 (stereo partly drawn) [I-602] | – | < 0.5 | – | –
11 | Cc1sc2c(c1C)C(c1ccc(N3CC[C@H](Nc4ncc(C(=O)N[C@H]5CC[C@H](Oc6ccc(C#N)c(Cl)c6)CC5)cn4)C3)cc1)=NC(Cc1ncco1)c1nnc(C)n1-2 (stereo partly drawn) [I-776] | < 0.5 | < 0.5 | – | –
12 | Cc1sc2c(c1C)C(c1ccc(N3CCC(C)(CNc4ncc(C(=O)N[C@H]5CC[C@H](Oc6ccc(C#N)c(Cl)c6)CC5)cn4)CC3)cc1)=NC(Cc1ncco1)c1nnc(C)n1-2 (stereo partly drawn) [I-817] | < 0.5 | < 0.5 | – | –
13 | Cc1sc2c(c1C)C(c1ccc(N3CCN(c4ncc(C(=O)N[C@H]5CC[C@H](Oc6ccc(C#N)c(Cl)c6)CC5)cn4)CC(F)(F)C3)cc1)=NC(Cc1ncco1)c1nnc(C)n1-2 (stereo partly drawn) [I-820] | < 0.5 | < 0.5 | – | –
14 | Cc1sc2c(c1C)C(c1ccc(N3CCC4(CC3)CC(Nc3ncc(C(=O)N[C@H]5CC[C@H](Oc6ccc(C#N)c(Cl)c6)CC5)cn3)C4)cc1)=NC(Cc1ncco1)c1nnc(C)n1-2 (stereo partly drawn) [I-818] | < 0.5 | < 0.5 | – | –
15 | Cc1sc2c(c1C)C(c1ccc(N[C@H]3CCN(c4ncc(C(=O)N[C@H]5CC[C@H](Oc6ccc(C#N)c(Cl)c6)CC5)cn4)C3)cc1)=NC(Cc1ncco1)c1nnc(C)n1-2 (stereo partly drawn) [I-773] | 0.5 to 1.5 | 0.5 to 1.5 | – | –
16 | Cc1sc2c(c1C)C(c1ccc(N3CCC(C)(Nc4ncc(C(=O)N[C@H]5CC[C@H](Oc6ccc(C#N)c(Cl)c6)CC5)cn4)CC3)cc1)=NC(Cc1ncco1)c1nnc(C)n1-2 (stereo partly drawn) [I-778] | < 0.5 | < 0.5 | – | –
17 | Cc1sc2c(c1C)C(c1ccc(N3CCCC(CNc4ncc(C(=O)NC5CCC(Oc6ccc(C#N)c(Cl)c6)CC5)cn4)C3)cc1)=NC(Cc1ncco1)c1nnc(C)n1-2 (mixture of isomers) [I-810] | – | – | 0.5 to 1.5 | < 0.5
18 | Cc1sc2c(c1C)C(c1ccc(N3CCCN(CCCNc4ncc(C(=O)N[C@H]5CC[C@H](Oc6ccc(C#N)c(Cl)c6)CC5)cn4)CC3)cc1)=NC(Cc1ncco1)c1nnc(C)n1-2 (stereo partly drawn) [I-816] | < 0.5 | > 3 | – | –
19 | Cc1sc2c(c1C)C(c1ccc(NCC3CN(c4ncc(C(=O)NC5CCC(Oc6ccc(C#N)c(Cl)c6)CC5)cn4)CCO3)cc1)=NC(Cc1ncco1)c1nnc(C)n1-2 (mixture of isomers) [I-814] | – | – | < 0.5 | < 0.5
20 | Cc1sc2c(c1C)C(c1ccc(N3C[C@H](F)C[C@@H](Nc4ncc(C(=O)N[C@H]5CC[C@H](Oc6ccc(C#N)c(Cl)c6)CC5)cn4)C3)cc1)=NC(Cc1ncco1)c1nnc(C)n1-2 (stereo partly drawn) [I-813] | < 0.5 | < 0.5 | – | –
21 | Cc1sc2c(c1C)C(c1ccc(NCCC3CCN(c4ncc(C(=O)N[C@H]5CC[C@H](Oc6ccc(C#N)c(Cl)c6)CC5)cn4)CC3)cc1)=NC(Cc1ncco1)c1nnc(C)n1-2 (stereo partly drawn) [I-811] | < 0.5 | < 0.5 | – | –
22 | Cc1sc2c(c1C)C(c1ccc(NCCN3CCN(c4ncc(C(=O)N[C@H]5CC[C@H](Oc6ccc(C#N)c(Cl)c6)CC5)cn4)CC3)cc1)=NC(Cc1ncco1)c1nnc(C)n1-2 (stereo partly drawn) [I-774] | < 0.5 | < 0.5 | – | –
23 | Cc1sc2c(c1C)C(c1ccc(N3CC4CC3CN4c3ncc(C(=O)NC4CCC(Oc5ccc(C#N)c(Cl)c5)CC4)cn3)cc1)=NC(Cc1ncco1)c1nnc(C)n1-2 (mixture of isomers) [I-815] | – | – | < 0.5 | < 0.5
24 | Cc1sc2c(c1C)C(c1ccc(N3CCC4(CCN(c5ccc(C(=O)N[C@H]6CC[C@H](Oc7ccc(C#N)c(Cl)c7)CC6)nn5)C4)C3)cc1)=N[C@@H](C)c1nnc(C)n1-2 (stereo partly drawn) [I-535] | < 0.5 | – | – | –
25 | Cc1sc2c(c1C)C(c1ccc(CC3CC(OC4CCN(c5ccc(C(=O)NC6CCC(Oc7ccc(C#N)c(Cl)c7)CC6)nn5)CC4)C3)cc1)=NC(C)c1nnc(C)n1-2 (stereo not drawn) [I-603] | < 0.5 | < 0.5 | – | –
26 | Cc1sc2c(c1C)C(c1ccc(N[C@H]3CC[C@@H](Nc4ncc(C(=O)N[C@H]5CC[C@H](Oc6ccc(C#N)c(Cl)c6)CC5)cn4)CC3)cc1)=NC(Cc1ncco1)c1nnc(C)n1-2 (stereo partly drawn) [I-775] | < 0.5 | > 3 | – | –
27 | Cc1sc2c(c1C)C(c1ccc(N3CCC4(CC3)CCN(c3ncc(C(=O)N[C@H]5CC[C@H](Oc6ccc(C#N)c(Cl)c6)CC5)cn3)C4)cc1)=NC(Cc1ncco1)c1nnc(C)n1-2 (mixture of isomers) [I-779] | – | – | < 0.5 | < 0.5
28 | Cc1sc2c(c1C)C(c1ccc(N3CCCC4(CCN(c5ncc(C(=O)N[C@H]6CC[C@H](Oc7ccc(C#N)c(Cl)c7)CC6)cn5)CC4)C3)cc1)=NC(Cc1ncco1)c1nnc(C)n1-2 (stereo partly drawn) [I-812] | < 0.5 | > 3 | – | –
29 | Cc1sc2c(c1C)C(c1ccc(N3CCN(C4CCN(c5ncc(C(=O)N[C@H]6CC[C@H](Oc7ccc(C#N)c(Cl)c7)CC6)cn5)C4)CC3)cc1)=NC(Cc1ncco1)c1nnc(C)n1-2 (mixture of isomers) [I-783] | – | – | < 0.5 | < 0.5
